T1: GIPR R43G (Homo sapiens, UniProt P48546, R43G)
T1 construct: host or cells: HEK293
T1 sequence (P48546 22-466 R43G): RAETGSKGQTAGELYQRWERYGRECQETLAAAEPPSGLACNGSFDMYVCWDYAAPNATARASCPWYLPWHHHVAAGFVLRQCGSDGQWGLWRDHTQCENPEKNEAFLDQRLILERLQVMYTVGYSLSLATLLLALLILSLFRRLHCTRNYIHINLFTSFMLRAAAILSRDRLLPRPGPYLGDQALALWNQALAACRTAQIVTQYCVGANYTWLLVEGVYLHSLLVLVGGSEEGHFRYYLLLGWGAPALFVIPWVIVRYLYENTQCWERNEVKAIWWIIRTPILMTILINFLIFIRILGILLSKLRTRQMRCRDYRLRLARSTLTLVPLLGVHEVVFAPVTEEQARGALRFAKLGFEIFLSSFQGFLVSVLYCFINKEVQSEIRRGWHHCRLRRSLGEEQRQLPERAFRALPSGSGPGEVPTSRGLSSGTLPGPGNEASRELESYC

B1: R43G (protein)
chain: T1 sequence (P48546 22-466 R43G)

How the values were obtained:
[1] = system: GIPR W90Lfs*17; assay: cAMP accumulation; format: cell-based, human; details: normalized to WT efficacy at 100 pM; n = 5
Procedure: HEK293 (CRL-1573, American Type Culture Collection) and β-arrestin 1/2 knockout cells, generated from HEK293A[48], were used for cAMP measurement, homologues competition binding and β-arrestin 2 recruitment. For the internalization assay, endosomal signalling and basal receptor localization experiments, HEK293A (R70507, Thermo Fisher) cells were used. Both cell lines were cultured at 5% CO2 at 37 °C in Roswell Park Memorial Institute GlutaMAX-I supplemented with 10% fetal bovine serum, 180 units ml^−1 penicillin, and 45 g ml^−1 streptomycin. For the cAMP and binding experiments, cells were transfected with the calcium phosphate precipitation method[49]. The polyethyleneimine (PEI) transfection method was used for the β-arrestin 2 recruitment assays[50], endosomal signalling and basal receptor localization assays, while the lipofectamine transfection method was used for the internalization assay.
cAMP production was measured with the DiscoverX Hithunter cAMP assay according to the manufacturer’s protocol (DiscoverX). […] On the day of the assay, the cells were washed twice with HEPES-buffered saline (HBS) and incubated with HBS and 1 mM 3-isobutyl-1-methylxanthine for 30 min at 37 °C. […] After a 3-h incubation on a shaking table in the dark, the cAMP accumulation was measured based on luminescence with a Perkin Elmer EnVision 2104 Multilabel Microplate Reader. […]

[2] = biological target: GIPR C84Pfs*70; assay: Homologous competition binding; design: species or system human; key: NB: no binding; details: n = 3
Procedure: (§1) Binding experiments were performed simultaneously with the same transiently transfected HEK293 cells used for the cAMP experiments to enable the correlation of receptor expression with signalling between assays. In brief, 1 day before the assay, the transfected cells were seeded in a clear 96-well plate. […] On the assay day, the cells were washed twice with 4 °C binding buffer (50 mM HEPES buffer (pH 7.2), 1 mM CaCl2, 5 mM MgCl2 and 0.5% (wt/vol) bovine serum albumin) and incubated for 15 minutes at 4 °C. […] After incubation, the cells were washed in ice-cold binding buffer and lysed with 200 mmol l^−1 NaOH with 1% sodium dodecyl sulphate for 30 min. The gamma radiation was measured with a 2470 Wizard2 Automatic Gamma Counter.
(§2) To obtain Emax, EC50, Bmax, Kd and IC50 values, we analysed the data with the non-linear regression curve fitting program GraphPad Prism Software 9 (GraphPad).
(§3) The Bmax was calculated according to the following equation[51]: Bmax=B0×IC50/[L] in which B0 represents the total specific binding and [L] is the ligand concentration. The equilibrium dissociation constant (Kd) was obtained with the equation[51]: Kd=IC50−[L]

[3] = system: GIPR W90Lfs*17; assay: Homologous competition binding; design: species or system human; details: normalized to WT GIPR; SEM 0.5, n = 3
Procedure: as §1, §2, §3

[4] = biological target: GIPR Y258Sfs*50; assay: Homologous competition binding; design: species or system human; key: NB: no binding; details: n = 4
Procedure: as §1, §2, §3

[5] = biological target: T1, GIPR R43G; assay: cAMP accumulation; format: cell-based
Procedure: HEK293 (CRL-1573, American Type Culture Collection) and β-arrestin 1/2 knockout cells, generated from HEK293A[48], were used for cAMP measurement, homologues competition binding and β-arrestin 2 recruitment. […] Both cell lines were cultured at 5% CO2 at 37 °C in Roswell Park Memorial Institute GlutaMAX-I supplemented with 10% fetal bovine serum, 180 units ml^−1 penicillin, and 45 g ml^−1 streptomycin. For the cAMP and binding experiments, cells were transfected with the calcium phosphate precipitation method[49].
cAMP production was measured with the DiscoverX Hithunter cAMP assay according to the manufacturer’s protocol (DiscoverX). […] On the day of the assay, the cells were washed twice with HEPES-buffered saline (HBS) and incubated with HBS and 1 mM 3-isobutyl-1-methylxanthine for 30 min at 37 °C. […] After the incubation, the assay medium was removed from the plate and the cells were washed with 30 µl PBS and treated with 40 µl enzyme donor–lysis buffer–chemiluminescent reagents and 10 µl cAMP antibodies for 60 min before 40 µl enzyme acceptor solution added. After a 3-h incubation on a shaking table in the dark, the cAMP accumulation was measured based on luminescence with a Perkin Elmer EnVision 2104 Multilabel Microplate Reader.

[6] = system: GIPR variants (groups); assay: cAMP accumulation; format: cell-based, human
[7] = system: GIPR variants (groups); assay: β-arrestin 2 recruitment (BRET);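 note: BRET readout of β-arrestin 2 recruitment in transiently transfected HEK293 cells expressing WT GIPR or a GIPR variant plus GPCR kinase 2, Rluc8 donor and citrine acceptor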

Molecule | cAMP (Efficacy of 100 pM) [1] | Kd (Binding) [2] | Binding (Bmax) ([2]; normalized to WT GIPR) | Binding (Bmax) [3] | Kd (Binding) [4] | Binding (Bmax) ([4]; normalized to WT GIPR) | Efficacy at 100pmol (cAMP) [5] | In vitro groups (cAMP) ([6]; cAMP part of the in vitro group) | percentage_camp ([6]; cAMP production compared with WT) | Beta, cAMP ([6]; in vitro cAMP production per GIPR variant) | In vitro groups (β-arrestin) ([7]; arr part of the in vitro group) | Beta, Barr ([7]; in vitro β-arrestin recruitment per GIPR variant)
GIP(1-42) | 0.531 | NB | NB | 1.36 | NB | NB | – | – | – | – | – | –
B1 | – | – | – | – | – | – | 1.1583 | WT-like_camp | >50% cAMP | 1.1583 | LoF_arr | 0.4783

Reference: publication PMC11272584 (Nature Metabolism, 2024)
